Here are results for 2 substances from article PMC10464304, “Refined read‐out: The hUHRF1 Tandem‐Tudor domain prefers binding to histone H3 tails containing K4me1 in the context of H3K9me2/3” (Protein Science : A Publication of the Protein Society, 2023).

The target of this experiment is T1, hUHRF1‐TTD WT (GST‐fused, residues 126–280) (Homo sapiens, UniProt Q96T88).
T1 construct: on previously defined borders (residues 126–280; Rothbart et al., [2012]) was N‐terminally fused to GST; made in house; host or cells: Escherichia coli
T1 sequence (Q96T88 126-280): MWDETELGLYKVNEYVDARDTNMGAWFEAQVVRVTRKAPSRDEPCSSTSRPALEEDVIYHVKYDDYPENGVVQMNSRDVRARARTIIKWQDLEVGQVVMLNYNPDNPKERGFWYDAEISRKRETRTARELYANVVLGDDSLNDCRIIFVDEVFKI
Briefly: Equilibrium peptide binding titration by fluorescence anisotropy (FA), TTD WT. The method, then:
The Tandem Tudor domain of hUHRF1 (UNIPROT Q96T88) on previously defined borders (residues 126–280; Rothbart et al., [2012]) was N‐terminally fused to GST. Mutations were introduced using an updated rolling circle protocol and validated by Sanger sequencing. Proteins were overexpressed in Escherichia coli by induction with 1 mM isopropyl‐β‐D‐thiogalactopyronoside (IPTG) when OD600 reached 0.6–0.8, and the culture was continued overnight at 20°C. The cells were harvested by centrifugation for 30 min, at 4°C and 3781 g. For purification, each pellet was resuspended in 30 mL sonication buffer (500 mM KCl, 20 mM HEPES pH 7.5, 10% v/v glycerol, and 0.2 mM dithiothreitol [DTT]) and sonicated for cell lysis (Q120 Sonicator, Active Motif). After centrifugation for 1 h at 4°C and 45,850 g, the soluble protein was purified using Glutathione Agarose 4B gravitational columns and dialyzed against dialysis buffer (200 mM KCl, 20 mM HEPES, 10% v/v glycerol, pH 7.5, and 0.2 mM DTT). […] Protein concentration was determined spectroscopically by A 280 and purity was verified on SDS‐PAGE.
Equilibrium peptide binding experiments were performed on a Jasco FP‐8300 spectrofluorometer with an automatic polarizer FDP‐837. […] Acquisitions were performed at 23°C with excitation at 493 nm and emission measured at 520 nm, slit width set to 5 nm for both, and multiple accumulations. […]
For orientation: Fluorescence polarisation rises when a labelled molecule tumbles more slowly, as on binding a larger partner.

Where only a bound is given, the exact number is not on record here.

For the substance “ARTK(me1)QTARK(me2)STGGKAPRKQ-K(FITC) [H3K4me1‐K9me2, FITC‐labeled histone H3 (1-19) peptide with K4me1 and K9me2]”, the “preference for the double‐modified peptide” value (H3K4me1‐K9me2 versus H3K9me2 peptide, FA titrations with GST‐TTD WT (Figure S3a)) is recorded as over 2 fold.
With “ARTK(me1)QTARKSTGGKAPR-K(FITC) [H3K4me1, FITC‐labeled histone H3 (1-17) peptide with K4me1]”, the “binding of TTD WT to the peptide (in words)” value (Supplemental Figure 3B, control data, FA titration) is recorded as “weakly”.
